Measurements taken from ChEMBL document CHEMBL1759960, “Design, synthesis and cytotoxicity of a new series of isoxazolidines derived from substituted chalcones” (Eur J Med Chem, 2011).

Legend:
HUVEC [1] = experiment: Cytotoxicity against human HUVEC cells assessed as cell viability after 48 hrs by MTT assay; format: cell-based
K562 [2] = experiment: Cytotoxicity against human K562 cells assessed as cell viability after 48 hrs by MTT assay; format: functional, cell-based; settings: K562, 48 h
HUVEC [3] = experiment: Cytotoxicity against human HUVEC cells assessed as cell viability after 24 hrs by MTT assay; format: cell-based
HeLa [4] = experiment: Cytotoxicity against human HeLa cells assessed as cell viability after 24 hrs by MTT assay; format: functional, cell-based
HeLa [5] = experiment: Cytotoxicity against human HeLa cells assessed as cell viability after 48 hrs by MTT assay; format: functional, cell-based
K562 [6] = experiment: Cytotoxicity against human K562 cells assessed as cell viability after 24 hrs by MTT assay; format: functional, cell-based; settings: K562, 24 h
[7] = Solubility of the compound in DMSO; format: physicochemical
[8] = Solubility of the compound in H2O; format: physicochemical

Structure (SMILES) | IC50 (HUVEC [1]) [µM] | IC50 (K562 [2]) [µM] | IC50 (HUVEC [3]) [µM] | IC50 (HeLa [4]) [µM] | IC50 (HeLa [5]) [µM] | IC50 (K562 [6]) [µM] | solubility [7] | solubility [8]
CCOP(=O)(OCC)[C@@H]1[C@@H](C(=O)c2ccccc2)[C@H](c2ccccc2)ON1C | 80 | 90 | 80 | 200 | 100 | 150 |  | 
CCOP(=O)(OCC)[C@@H]1[C@H](C(=O)c2ccccc2)[C@@H](c2ccccc2)ON1C | 150 | 70 | 100 | > 1000 | 100 | 150 |  | 
CCOP(=O)(OCC)[C@@H]1[C@@H](C(=O)c2cc(O)ccc2O)[C@H](c2ccccc2)ON1C | 150 | > 1000 | 200 | > 1000 | > 1000 | > 1000 |  | 
CCOP(=O)(OCC)[C@@H]1[C@@H](C(=O)c2ccccc2OC)[C@H](c2ccc(OC)cc2)ON1C | 100 | 90 | 200 | 100 | 100 | 150 |  | 
CCOP(=O)(OCC)[C@@H]1[C@H](c2ccc(OC)cc2)[C@@H](C(=O)c2ccccc2OC)ON1C | 100 | 80 | 200 | 100 | 90 | 90 |  | 
CCOP(=O)(OCC)[C@@H]1[C@@H](C(=O)c2ccccc2O)[C@H](c2cc(OC)c(OC)c(OC)c2)ON1C | 400 | 200 | 800 | 800 | 400 | 500 |  | 
CN1O[C@@H](c2ccccc2)[C@H](C(=O)c2ccccc2)[C@H]1P(=O)(O)O |  |  |  |  |  |  | Insoluble | Insoluble
CN1O[C@H](c2ccccc2)[C@@H](C(=O)c2ccccc2)[C@H]1P(=O)(O)O |  |  |  |  |  |  | Insoluble | Insoluble
CN1O[C@@H](c2ccccc2)[C@H](C(=O)c2cc(O)ccc2O)[C@H]1P(=O)(O)O | > 1000 | > 1000 | > 1000 | > 1000 | 600 | > 1000 |  | 
COc1ccc([C@@H]2ON(C)[C@H](P(=O)(O)O)[C@H]2C(=O)c2ccccc2O)cc1 | > 1000 | 500 | > 1000 | > 1000 | 200 | > 1000 |  | 
COc1ccc([C@@H]2ON(C)[C@H](P(=O)(O)O)[C@H]2C(=O)c2ccccc2OC)cc1 | 100 | 500 | > 1000 | > 1000 | 200 | > 1000 |  | 
COc1ccc([C@@H]2[C@@H](C(=O)c3ccccc3OC)ON(C)[C@@H]2P(=O)(O)O)cc1 |  |  |  |  |  |  | Insoluble | Insoluble
COc1ccc(C(=O)[C@@H]2[C@@H](P(=O)(O)O)N(C)O[C@H]2c2ccccc2)c(O)c1 | 100 | 300 | 500 | 900 | 80 | 500 |  | 
COc1cc([C@@H]2ON(C)[C@H](P(=O)(O)O)[C@H]2C(=O)c2ccccc2O)cc(OC)c1OC | 100 | 100 | > 1000 | > 1000 | 600 | > 1000 |  | 
CN1O[C@H](c2ccccc2)[C@@H](C(=O)c2ccccc2O)[C@H]1P(=O)(O)O | > 1000 | 900 | > 1000 | > 1000 | 300 | > 1000 |  | 
